The values that follow come from patent publication US20250026880A1, “POLY(DIALLYLDIMETHYLAMMONIUM) FLUORIDE - A NEW ANTI-CARIES AND REMINERALIZING AGENT” (The University of Hong Kong, priority 2023, published 2025).

The nature of this assay: Remineralizing properties on EDTA-etched dentin blocks soaked in simulated body fluid (SEM/EDX). To be noted: 15 μL applied on dentin etched by 10% EDTA; soaked in simulated body fluid for 7 d; PDDAF 280,000 ppm, SDF 38%. The method, then:
The volume of both solutions applied on dentin surface is 15 μL.
The remineralizing properties of 280,000 ppm cationic polymer fluoride solution was examined. […] Dentin blocks with the dimensions of 4 mm×4 mm×2 mm were prepared (FIGS. 8C-8D, 9C-9D).

In the case of silver diamine fluoride [38% SDF], the “minerals formed on re-mineralized dentin surface (EDX)” value was “formation of mineral calcium phosphate and silver chloride”.
